Measurements published in PMC10881971, “Hepa-ToxMOA: a pathway-screening method for evaluating cellular stress and hepatic metabolic-dependent toxicity of natural products” (Scientific Reports, 2024).
Structures can show the parent of a compound that is named as a salt. Where two headings read alike, the source gives them in different places.

Tests used:
[1] = test system: AP1, P53, Nrf2, and NF-κB
[2] = test system: P53
[3] = test system: CYP3A4; details: cited from earlier work
[4] = test system: CYP3A5; set-up: method as in doi:10.1016/j.ccr.2020.213600; details: cited from earlier work
[5] = test system: AP1
[6] = test system: NF-κB
[7] = test system: Nrf2
[8] = under metabolic activation (S9+, 1% rat liver S9), 24 h
[9] = without metabolic activation (S9-), 24 h
[10] = regardless of metabolic activation (S9- and S9+), 24 h

Structure (SMILES)	sum of activity scores compared between metabolic activation and non-metabolic conditions [1]	Toxic (natural products exceeding Score 3, Venn diagram list Fig. 3c) ([1]; human)	Toxic (natural products exceeding Score 3, Venn diagram list Fig. 3c) [1]	also measured
C[C@]12CC[C@H](O)C[C@@]1(O)CC[C@@H]1[C@@H]2CC[C@]2(C)[C@@H](c3ccc(=O)oc3)CC[C@]12O [Telocinobufagin]	more active without metabolic activation	S9- only		
CC(=O)O[C@H]1[C@H]2O[C@]23[C@@H]2CC[C@@H]4C[C@@H](O)CC[C@]4(C)[C@H]2CC[C@]3(C)[C@H]1c1ccc(=O)oc1 [Cinobufagin]	consistently active regardless of metabolic activation		Common	GFP expression, P53 cell line [2]: increased; active (increased GFP intensity) for all Hepa-ToxMOA cell lines (Fig. 3d) [1]: commonly active; substrate of CYP3A4 [3]: substrates; substrate of CYP3A5 [4]: substrates
CO[C@H]1C[C@H](O[C@H]2CC[C@]3(C)[C@H]4CC[C@]5(C)[C@@H](C6=CC(=O)OC6)CC[C@]5(O)[C@@H]4CC[C@]3(O)C2)O[C@H](C)[C@H]1O[C@@H]1O[C@H](CO)[C@@H](O)[C@H](O)[C@H]1O [Periplocoside]				GFP expression, AP1 cell line [5, 8]: did not respond; GFP expression, AP1 cell line [5, 9]: specifically induced GFP expression
CC[C@]1(O)C[C@H]2CN(CCc3c([nH]c4ccccc34)[C@@](C(=O)OC)(c3cc4c(cc3OC)N(C=O)[C@H]3[C@@](O)(C(=O)OC)[C@H](OC(C)=O)[C@]5(CC)C=CCN6CC[C@]43[C@@H]65)C2)C1 [Vincristine, reference compound]	more active under metabolic activation	S9+ only		active (increased GFP intensity) for all Hepa-ToxMOA cell lines (Fig. 3d) [1]: commonly active
COc1cc([C@@H]2c3cc4c(cc3[C@H](O)[C@H]3COC(=O)[C@@H]23)OCO4)cc(OC)c1OC [Picropodophyllotoxin]				GFP expression, AP1 cell line [5, 8]: did not respond; GFP expression, AP1 cell line [5, 9]: specifically induced GFP expression
CC[C@@]1(O)C(=O)OCc2c1cc1n(c2=O)Cc2cc3c(OC)cccc3nc2-1 [9-Methoxycamptothecin]				GFP expression, NF-κB cell line [6, 10]: increased GFP expression
O=C(C[C@@H]1NCCC[C@H]1O)Cn1cnc2ccccc2c1=O [beta-dichroine, beta-febrifugine (beta-dichroine)]	did not show a response			
CC(C)=CCc1c(O)cc2oc3cc(O)c(O)c(CCC(C)(C)O)c3c(=O)c2c1O [Garcinone C]	more active under metabolic activation		S9+ only	
CC1=C(O)C(=O)C=C2C1=CC=C1[C@@]2(C)CC[C@@]2(C)[C@@H]3C[C@](C)(C(=O)O)CC[C@]3(C)CC[C@]12C [Celastrol]	more active under metabolic activation	S9+ only		
CC[C@]1(O)C[C@@H]2CN(CCc3c([nH]c4ccccc34)[C@@](C(=O)OC)(c3cc4c(cc3OC)N(C)[C@H]3[C@@](O)(C(=O)OC)[C@H](OC(C)=O)[C@]5(CC)C=CCN6CC[C@]43[C@@H]65)C2)C1 [Vinblastine sulfate, reference compound]	more active under metabolic activation	S9+ only		
C[C@]12CC[C@H](O)C[C@H]1CC[C@@H]1[C@@H]2CC[C@]2(C)[C@@H](c3ccc(=O)oc3)CC[C@]12O [Bufalin]	more active under metabolic activation	S9+ only		GFP expression, AP1 cell line [5, 8]: did not respond; GFP expression, AP1 cell line [5, 9]: specifically induced GFP expression
COc1c(O)cc2oc3cc(O)c(CC=C(C)C)c(O)c3c(=O)c2c1CC=C(C)C [alpha-Mangostin]	more active under metabolic activation		S9+ only	
COc1cc([C@@H]2c3cc4c(cc3[C@H](O)[C@H]3COC(=O)[C@H]23)OCO4)cc(OC)c1OC [Podophyllotoxin, reference compound]	consistently active regardless of metabolic activation		Common	GFP expression, AP1 cell line [5, 8]: did not respond; GFP expression, AP1 cell line [5, 9]: specifically induced GFP expression
C[C@]12CC[C@H](O)C[C@H]1CC[C@@H]1[C@@H]2CC[C@]2(C)[C@@H](c3ccc(=O)oc3)C[C@H]3O[C@]132 [Bufogenin]	consistently active regardless of metabolic activation		Common	GFP expression, AP1 cell line [5, 8]: did not respond; GFP expression, AP1 cell line [5, 9]: specifically induced GFP expression; GFP expression, P53 cell line [2]: increased; active (increased GFP intensity) for all Hepa-ToxMOA cell lines (Fig. 3d) [1]: commonly active
C[C@]12CC[C@H](O)C[C@H]1CC[C@@H]1[C@@H]2[C@H](O)C(=O)[C@]2(C)[C@@H](c3ccc(=O)oc3)CC[C@]12O [Arenobufagin]	more active without metabolic activation		S9- only	GFP expression, AP1 cell line [5, 8]: did not respond; GFP expression, AP1 cell line [5, 9]: specifically induced GFP expression
COc1cc2c3c(c1OC)-c1ccccc1C[C@H]3NCC2 [N-nornuciferine]	consistently active regardless of metabolic activation		Common	GFP expression, P53 cell line [2]: no change; increase of GFP expression, P53 cell line [2]: up to 1.5 fold; GFP expression, Nrf2 cell line [7]: induced GFP expression; GFP expression, NF-κB cell line [6]: increased GFP expression; active (increased GFP intensity) for all Hepa-ToxMOA cell lines (Fig. 3d) [1]: commonly active
C[C@@H]1O[C@@H](O[C@H]2[C@H](OC(=O)[C@]34CCC(C)(C)C[C@H]3C3=CC[C@@H]5[C@@]6(C)C[C@H](O)[C@H](O[C@@H]7O[C@H](CO)[C@@H](O)[C@H](O[C@@H]8O[C@H](CO)[C@@H](O)[C@H](O)[C@H]8O)[C@H]7O)C(CO)(CO)[C@@H]6CC[C@@]5(C)[C@]3(C)C[C@H]4O)OC[C@H](O)[C@@H]2O)[C@H](O)[C@H](O)[C@H]1O[C@@H]1OC[C@@H](O)[C@H](O[C@@H]2OC[C@](O)(CO)[C@H]2O)[C@H]1O [Platycodin D2]	more active without metabolic activation	S9- only		
CC(=O)O[C@H]1[C@H]2O[C@]23[C@@H]2CC[C@]4(O)C[C@@H](O)CC[C@]4(C)[C@H]2CC[C@]3(C)[C@H]1c1ccc(=O)oc1 [Cinobufotalin]	more active without metabolic activation	S9- only		
CCc1c2c(nc3ccc(O)cc13)-c1cc3c(c(=O)n1C2)COC(=O)[C@]3(O)CC [7-Ethyl-10-Hydroxycamptothecin]				GFP intensity, AP1 cell line [5]: increased
CC[C@@]1(O)C(=O)OCc2c1cc1n(c2=O)Cc2cc3cc(O)ccc3nc2-1 [10-Hydroxycamptothecin]	consistently active regardless of metabolic activation		Common	GFP intensity, AP1 cell line [5, 10]: increased
C[C@@]1(C(=O)O)CC[C@]2(C)CC[C@]3(C)C4=CC(=O)c5c(cc(O)c(O)c5C=O)[C@]4(C)CC[C@@]3(C)[C@@H]2C1 [Demethylzeylasteral]	did not show a response			
C[C@]12CC[C@H](O)C[C@H]1CC[C@@H]1[C@@H]2[C@H](O)C[C@]2(C)[C@@H](c3ccc(=O)oc3)CC[C@]12O [Gamabufotalin]	more active without metabolic activation	S9- only		GFP expression, P53 cell line [2]: increased
C[C@@H]1CC[C@@]2(OC1)O[C@H]1C[C@H]3[C@@H]4CC=C5C[C@@H](O)C[C@@H](O[C@@H]6O[C@H](C)[C@H](O)[C@H](O)[C@H]6O[C@@H]6O[C@@H](C)[C@H](O)[C@@H](O)[C@H]6O)[C@]5(C)[C@H]4CC[C@]3(C)[C@H]1[C@@H]2C [Ophiopogonin B]	did not show a response			
CO[C@]1(CC[C@@H](C)CO[C@@H]2O[C@H](CO)[C@@H](O)[C@H](O)[C@H]2O)O[C@H]2C[C@H]3[C@@H]4CC=C5C[C@@H](O[C@@H]6O[C@H](CO)[C@@H](O[C@@H]7O[C@@H](C)[C@H](O)[C@@H](O)[C@H]7O)[C@H](O)[C@H]6O[C@@H]6O[C@@H](C)[C@H](O)[C@@H](O)[C@H]6O)CC[C@]5(C)[C@H]4CC[C@]3(C)[C@H]2[C@@H]1C [Methyl protodioscin]				GFP intensity, AP1 cell line [5]: increased
C[C@@H]1O[C@@H](O[C@H]2[C@H](OC(=O)[C@]34CCC(C)(C)C[C@H]3C3=CC[C@@H]5[C@@]6(C)C[C@H](O)[C@H](O[C@@H]7O[C@H](CO)[C@@H](O)[C@H](O)[C@H]7O)C(CO)(CO)[C@@H]6CC[C@@]5(C)[C@]3(C)C[C@H]4O)OC[C@H](O)[C@@H]2O)[C@H](O)[C@H](O)[C@H]1O[C@@H]1OC[C@@H](O)[C@H](O[C@@H]2OC[C@](O)(CO)[C@H]2O)[C@H]1O [Platycodin D]	more active under metabolic activation	S9+ only		
